One assay concerns the target T1, PPARδ (Homo sapiens, UniProt Q03181).
T1 construct: made in house; host or cells: HEK293 (cell lysates)
T1 sequence (Q03181 1-441): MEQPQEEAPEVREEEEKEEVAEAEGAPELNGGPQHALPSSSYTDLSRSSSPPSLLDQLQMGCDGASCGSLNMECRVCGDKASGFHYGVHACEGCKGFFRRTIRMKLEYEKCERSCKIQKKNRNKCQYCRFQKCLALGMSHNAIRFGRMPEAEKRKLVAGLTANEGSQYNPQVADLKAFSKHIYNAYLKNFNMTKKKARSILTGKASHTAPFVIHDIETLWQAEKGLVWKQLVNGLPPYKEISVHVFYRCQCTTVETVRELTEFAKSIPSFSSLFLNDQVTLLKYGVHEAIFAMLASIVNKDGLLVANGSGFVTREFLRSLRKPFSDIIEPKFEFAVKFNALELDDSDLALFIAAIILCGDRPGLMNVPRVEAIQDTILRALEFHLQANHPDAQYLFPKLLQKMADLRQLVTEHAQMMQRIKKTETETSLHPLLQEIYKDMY
T1 sequence (P19793 1-462 partner): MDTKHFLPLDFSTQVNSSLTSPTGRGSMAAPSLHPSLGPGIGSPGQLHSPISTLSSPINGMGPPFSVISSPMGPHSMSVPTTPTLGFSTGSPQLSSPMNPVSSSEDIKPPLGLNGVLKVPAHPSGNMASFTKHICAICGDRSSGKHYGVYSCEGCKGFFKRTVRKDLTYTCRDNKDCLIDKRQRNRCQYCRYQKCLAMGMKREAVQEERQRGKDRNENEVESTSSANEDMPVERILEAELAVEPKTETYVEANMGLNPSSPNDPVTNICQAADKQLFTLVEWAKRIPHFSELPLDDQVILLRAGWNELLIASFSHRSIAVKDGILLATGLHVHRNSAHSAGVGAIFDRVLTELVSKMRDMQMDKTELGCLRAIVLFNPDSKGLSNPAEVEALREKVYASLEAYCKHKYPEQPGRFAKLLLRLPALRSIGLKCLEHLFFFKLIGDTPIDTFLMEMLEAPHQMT
The experiment in a line: PPARδ binding assay (SPA). The following applies: concentrations up to 10 μM. On the procedure: Because GPR40 is known to be activated by ligands to PPARγ exemplified compounds are examined in PPARα, PPARδ, and PPARγ binding and functional assays to determine the selectivity of exemplified compounds for GPR40. Compounds exemplified herein are tested essentially as described below for PPAR binding and generally have binding values greater than 1000 nM with 10 μM concentrations of test compound and are thus considered negative for PPAR activity.
Binding affinities of compounds for the PPAR α, δ, and γ receptors are assessed using Scintillation Proximity Assay (SPA) technology. Biotinylated oligonucleotide Direct Repeat 2 (DR2) is used for binding the receptors to Yttrium silicate streptavidin-coated SPA beads. […] Non-specific binding is determined in the presence of 10,000 nM of the unlabeled PPAR α/δ dual agonist reference compound for the alpha and delta receptor assays and the PPARγ agonist reference compound for the gamma receptor assay. The binding reaction (100 μl per well in a 96 well [Costar 3632] plate) is incubated for 10 h and counted disintegration per minutes (dpm) on a Wallac Microbeta. Receptor binding affinity (IC50) for the compounds is determined by fitting an 11 point concentration-response curve with a 4-paramater logistic equation. K, is determined from the IC50 using the Cheng-Prussoff equation and Kd determined by saturation binding. […]

The target in another assay is T2, Gal4 PPARα (Homo sapiens, UniProt Q07869).
T2 construct: expressed in transfected cells; host or cells: CV1 (African green monkey kidney)
T2 sequence (Q07869 239-466 limits assumed): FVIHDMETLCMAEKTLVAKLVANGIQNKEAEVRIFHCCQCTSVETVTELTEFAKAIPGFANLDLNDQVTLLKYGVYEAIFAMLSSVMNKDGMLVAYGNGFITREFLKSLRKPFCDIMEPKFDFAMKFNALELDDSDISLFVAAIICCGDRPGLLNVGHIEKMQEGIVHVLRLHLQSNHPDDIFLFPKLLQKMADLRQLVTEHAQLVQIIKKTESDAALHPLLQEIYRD
The assay is described as follows: Gal4 PPARα reporter functional assay in CV1 cells. The class given is cell-based. The following applies: examined up to 10 μM, luciferase reporter, 24 hours. The text has this: Gal4 PPARα, Gal4 PPARδ, and PPARγ reporter functional assays are also used to monitor the selectivity of exemplified compounds. CV1 cells, which are derived from the renal tissue of an African green monkey, are transfected with various receptor and reporter plasmids using Fugene. For the Gal4 PPARα and PPARδ assays, a reporter plasmid containing five tandem copies of the yeast transcription protein Gal4 response element, cloned upstream of a firefly luciferase gene driven by the major late promoter of adenovirus, is transfected together with a Simian Virus 40 (SV40) driven plasmid constitutively expressing a hybrid protein containing the Gal4 DNA binding domain (DBD), and either the PPARα or PPARδ ligand binding. For the PPARγ assay, plasmids encoding PPARγ and RXRα, both driven by a cytomegalovirus (CMV) promoter are transfected together with a plasmid containing luciferase reporter cDNA driven by the TK promoter and a receptor response element (2×PPRE). Cells are transfected in T225 cm^2 cell culture flasks in DMEM media with 5% charcoal-stripped FBS. […] After 24 hours incubation with compounds, cells are lysed and luciferase activity is determined as a measure of receptor activation by luminescence. […] The maximum percent stimulation is determined versus maximum stimulation obtained with 10 μM of an appropriate PPAR agonist reference compound. […]
Background: A reporter such as luciferase makes a cellular process visible.

Results on 1 molecule are retold here after patent US8822486B2, “Spiropiperidine compounds” (Eli Lilly and Company, priority 2009, dated 2014).

Take `CC#C[C@@H](CC(=O)O)c1ccc(OCc2ccc(CN3CCC4(C=Cc5ccccc54)CC3)s2)cc1` [Example 1, (3S)-3-[4-[[5-(Spiro[indene-1,4′-piperidine]-1′-ylmethyl)-2-thienyl]methoxy]phenyl]hex-4-ynoic acid]: the PPARδ binding entry at PPARδ is “no binding is detected”. Moreover, the “functional activation of PPARα” value at Gal4 PPARα is “No functional activation”.
